Results published in US20100331348A1, “TROPANE DERIVATIVES USEFUL AS PESTICIDES” (SYNGENTA CROP PROTECTION, INC., priority 2007, published 2010).
Where two headings read alike, the source gives them in different places.

Assays:
[1] = tested on: Phytophthora infestans; experiment: whole plant or invertebrate; type: in vivo; details: foliar, 96 h, read-out: control of fungal infection, Phytophthora infestans
[2] = tested on: Plasmopara viticola; experiment: Plasmopara viticola (downy mildew of grapevine) leaf disk assay; type: in vivo; details: foliar, 168 h, preventive, seven days after inoculation, read-out: control of fungal infection, Plasmopara viticola
[3] = tested on: Myzus persicae; experiment: Myzus persicae (Green peach aphid) sunflower leaf disc test; details: foliar, 144 h, read-out: control of Myzus persicae
[4] = tested on: Tetranychus urticae; details: foliar, 192 h, read-out: control of Tetranychus urticae
[5] = tested on: Erysiphe graminis f.sp. tritici; experiment: Erysiphe graminis f.sp. tritici (wheat powdery mildew) leaf disk assay; type: in vivo; details: Blumeria graminis, foliar, 96 h, preventive, four days after inoculation, read-out: control of fungal infection, Erysiphe graminis fsp. tritici
[6] = tested on: Puccinia recondita f.sp. tritici; experiment: Puccinia recondita f.sp. tritici (wheat brown rust) leaf disk assay; type: in vivo; details: foliar, 216 h, preventive, nine days after inoculation, read-out: control of fungal infection, Puccinia recondita f.sp. tritici
[7] = tested on: Pythium ultimum; experiment: Pythium ultimum (Damping off) growth inhibition in potato dextrose broth; type: cell-based; details: Globisporangium ultimum, 48 hours, read-out: control of fungal infection, Pythium ultimum
[8] = tested on: Pyricularia oryzae; experiment: whole plant or invertebrate; type: in vivo; details: foliar, 96 h
[9] = tested on: Aedes aegypti; experiment: Aedes aegypti (Yellow fever mosquito) larvae test; type: in vivo; details: 48 h
[10] = tested on: Plutella xylostella; experiment: Plutella xylostella (Diamond back moth) artificial diet test; details: 120 h, read-out: control of Plutella xylostella
[11] = tested on: Heliothis virescens; experiment: Heliothis virescens (Tobacco budworm) egg test on artificial diet; details: 96 h, read-out: control of Heliothis virescens
[12] = read-out: control of fungal infection, Pyricularia oryzae (at least 60% list)

| SMILES | pest or weed control at 200 ppm [1] [%] | pest or weed control at 200 ppm [2] [%] | pest or weed control at 200 ppm [3] [%] | pest or weed control at 200 ppm [4] [%] | pest or weed control at 200 ppm [5] [%] | pest or weed control at 200 ppm [6] [%] | inhibition of growth at 200 ppm [7] [%] | melting point [°C] | pest or weed control at 200 ppm [8, 12] [%] | pest or weed control at 2 ppm [9] [%] | pest or weed control at 200 ppm [10] [%] | pest or weed control at 200 ppm [11] [%] | pest or weed control at 200 ppm ([8]; read-out: control of fungal infection, Pyricularia oryzae (at least 80% list)) [%] |
| --- | --- | --- | --- | --- | --- | --- | --- | --- | --- | --- | --- | --- | --- |
| CC(C)(C)c1ccc(OC2C[C@H]3CC[C@@H](C2)N3c2ncnc3sccc23)cc1 (stereo partly shown) [Example 1.25] | ≥ 80 | ≥ 80 | ≥ 80 | ≥ 80 | – | – | – | – | – | – | – | – | – |
| CCc1ncnc(N2[C@@H]3CC[C@H]2CC(Oc2ccc(CCC(C)=O)cc2)C3)c1Cl (stereo partly shown) [Example 1.213] | – | – | ≥ 80 | ≥ 80 | ≥ 80 | ≥ 80 | – | – | – | – | – | – | – |
| Cc1ccc(OC2C[C@H]3CC[C@@H](C2)N3c2ccnc3c2c(C)nn3C)cn1 (stereo partly shown) [Example 2.164] | – | – | – | – | ≥ 80 | – | ≥ 60 | 153 | – | – | – | – | – |
| Fc1cccc2c(N3[C@@H]4CC[C@H]3CC(Oc3cccc(C(F)(F)F)n3)C4)ccnc12 (stereo partly shown) [Example 2.172] | – | – | – | – | – | – | ≥ 60 | 133 | – | – | – | – | – |
| FC(F)(F)c1cccc(OC2C[C@H]3CC[C@@H](C2)N3c2ccnc3cc(Cl)ccc23)n1 (stereo partly shown) [Example 2.174] | – | – | – | – | – | – | ≥ 60 | 177 | – | – | – | – | – |
| FC(F)(F)c1cccc(OC2C[C@H]3CC[C@@H](C2)N3c2ccnc3c(Cl)cccc23)n1 (stereo partly shown) [Example 2.175] | ≥ 80 | – | – | – | – | – | ≥ 60 | 116 | ≥ 60 | – | – | – | – |
| Fc1cccc2c(N3[C@@H]4CC[C@H]3CC(Oc3cc(C(F)(F)F)ccn3)C4)ccnc12 (stereo partly shown) [Example 2.185] | ≥ 80 | – | – | – | ≥ 80 | – | ≥ 60 | – | ≥ 60 | – | – | – | – |
| Fc1cccc2c(N3[C@@H]4CC[C@H]3CC(Oc3ccc(C(F)(F)F)cn3)C4)ccnc12 (stereo partly shown) [Example 2.201] | ≥ 80 | – | – | ≥ 80 | ≥ 80 | ≥ 80 | ≥ 60 | – | ≥ 60 | ≥ 80 | ≥ 80 | ≥ 80 | – |
| CCc1ncnc(N2C3CCC2CC(=NOCc2ccncc2)C3)c1Cl [Example 5.6] | ≥ 80 | – | – | ≥ 80 | – | ≥ 80 | ≥ 60 | – | – | ≥ 80 | – | – | – |
| CCc1ncnc(N2C3CCC2CC(=NOCc2ccc(C)cc2)C3)c1Cl [Example 5.7] | ≥ 80 | – | ≥ 80 | – | ≥ 80 | ≥ 80 | – | – | – | ≥ 80 | ≥ 80 | – | – |
| CCc1ncnc(N2C3CCC2CC(=NOCc2ccccn2)C3)c1Cl [Example 5.41] | ≥ 80 | – | – | – | ≥ 80 | ≥ 80 | ≥ 60 | – | – | ≥ 80 | – | ≥ 80 | – |
| CCc1ncnc(N2C3CCC2CC(=NOCc2ccc(C(F)(F)F)cc2)C3)c1Cl [Example 5.43] | – | – | ≥ 80 | ≥ 80 | ≥ 80 | ≥ 80 | – | – | – | – | ≥ 80 | – | ≥ 80 |
| CCc1ncnc(N2C3CCC2CC(=NOCc2ccccc2F)C3)c1Cl [Example 5.54] | – | – | ≥ 80 | ≥ 80 | ≥ 80 | ≥ 80 | – | – | – | ≥ 80 | ≥ 80 | – | – |
| CCc1ncnc(N2C3CCC2CC(=NOCc2ccc(F)cc2Cl)C3)c1Cl [Example 5.76] | – | – | ≥ 80 | – | – | ≥ 80 | – | – | ≥ 60 | ≥ 80 | ≥ 80 | – | – |
| CCc1ncnc(N2C3CCC2CC(=NOCc2c(F)ccc(F)c2F)C3)c1Cl [Example 5.82] | ≥ 80 | – | ≥ 80 | – | ≥ 80 | ≥ 80 | – | – | ≥ 60 | ≥ 80 | ≥ 80 | – | – |
